# Columns and labels:
# HL60 cells = assay: Cell viability of HL60 cells, WST-1; format: cell-based, human; details: 24 hours, WST-1, FIG. 1A
# From the text: (§1) The constructed cell lines were also diverse. Thus, in order to confirm the applicability to a wide range of therapeutic agents that are not therapeutic agents for specific types of acute leukemia, in the present invention, KG1α cells constructed by selecting only cells having a stem cell phenotype from KG1 cells, which are cell lines obtained from a person with acute myelogenous leukemia, were used. HL60 cells, which are cell lines obtained from a person with acute promyelocytic leukemia, and U937 cells, which are cell lines obtained from a person with histiocytic lymphoma, were used.
# (§2) KG1α and HL60 cells were cultured in IMDM medium containing 20% FBS (fetal bovine serum), and U937 cells were cultured in RPMI 1640 medium containing 10% FBS. All cells were cultured in an incubator under conditions of 37° C. and 5% CO2, and subcultured once every 2 or 3 days and used in the experiment.
# (§3) The HL60 cells or U937 cells cultured in Example 2-1 were inoculated into a 96-well plate at 1×10^5 cells/well, and then for the stabilization of cells, the cells were cultured in an incubator at 37° C. and 5% CO2 for 16 hours or more. Subsequently, the compound 1 synthesized in Example 1 was treated at concentrations of 0.1, 0.5 and 1 μM, respectively, and reacted for 24 hours. […] The absorbance was then measured at 450 nm with a multi-scan machine.
# U937 cells = assay: Cell viability of U937 cells, WST-1; format: cell-based, human; details: 24 hours, WST-1, FIG. 1B
# From the text: as §1, §2, §3
# K562 cells = assay: Cell viability in chronic leukemia K562 cells, WST assay; format: cell-based, human; details: 0.1 to 5 μM
# Method: K562 cells obtained from a person with chronic myeloid leukemia were cultured in an incubator under conditions of 37° C. and 5% CO2 using RPMI medium containing 10% FBS (fetal bovine serum), and subcultured once every two days and used in the experiment.
# The K562 cells cultured in Example 4-1 were inoculated into a 96-well plate at 1×10^5 cells/well, and then, for the stabilization of cells, the cells were cultured in an incubator at 37° C. and 5% CO2 for 16 hours or more. Subsequently, among the compounds synthesized in Example 1, the compounds 1, 10, and 72 and 192 were treated at a concentration of 0.1 to 5 μM and then cultured for 4 hours. At this time, DMSO was used as a control group. After 4 hours of incubation, 10 μl of WST solution was added to each cell and then reacted for 2 hours.
# MCF7 (breast carcinoma) = assay: Cell viability in solid cancer cells, WST assay, MCF7; format: cell-based, human; details: Homo sapiens, MCF7, 1 to 30 μM, 6 hours
# From the text: (§4) To confirm the possibility of use as a therapeutic agent for solid cancer, A549 cell line obtained from a […] with lung carcinoma, Hela cell line obtained from a person with cervix adenocarcinoma, HepG2 cell line obtained from a child with hepatocellular carcinoma, MCF7 cell line obtained from a person with breast adenocarcinoma, and Beas-2B cell line obtained from a normal lung for comparison with solid cancer cell line were used.
# (§5) The A549 (lung carcinoma), Hela (cervix adenocarcinoma), HepG2 (hepatocellular carcinoma), MCF7 (breast carcinoma), and Beas-2B (normal lung) cell lines were used in DMEM medium containing 10% FBS, subcultured once every 2 days in an incubator under conditions of 37° C. and 5% CO2 and used in the experiment.
# (§6) A549 (lung carcinoma), Hela (cervix adenocarcinoma), HepG2 (hepatocellular carcinoma), MCF7 (breast carcinoma), and Beas-2B (normal lung) cells cultured in Example 6-1 were inoculated into a 96-well plated at 1×10^4 cells/well, and then for the stabilization of cells, the cells were cultured in an incubator at 37° C. and 5% CO2 for 16 hours or more. Subsequently, among the compounds synthesized in Example 1, the compounds 1, 10 and 72 were treated at a concentration of 1 to 30 μM, and then cultured for 6 hours. At this time, DMSO and β-lapachone were used as the control group. After 4 hours of incubation, 10 μl of WST solution was added to each cell, the reaction was carried out for 2 hours, and the absorbance was measured at 450 nm with a multi-scan machine. The cell viabilities of A549 (lung carcinoma), Hela (cervix adenocarcinoma), HepG2 (hepatocellular carcinoma) and MCF7 (breast carcinoma) cells are shown in Table 4 and FIG. 6 below.
# C57BL/6 mice = assay: Acute toxicity experiment, mortality in mice; format: in vivo; details: 120 mg/kg orally, 24 hours after administration
# Method: This experiment was conducted to examine the acute toxicity to the animal body acutely (within 24 hours) when the compound 1 of the present invention was ingested in excess in a short period of time, and to determine the mortality rate. 20 C57BL/6 mice, which are common mice, were prepared, and ten mice were assigned to each group. Only 0.1% SLS (sodium lauryl sulfate) was administered to the control group, and the compound 1 was orally administered to the experimental group at a concentration of 120 mg/kg, respectively. As a result of examining each mortality rate 24 hours after administration, both the control group and the experimental group to which the compound 1 was administered survived.
# [1] = tested on: A549, Hela, HepG2, MCF7 and Beas-2B cells; assay: Cell viability WST assay, all solid cancer and normal lung lines taken together; format: cell-based, human; details: 6 hours
# From the text: as §4, §5, §6
structure (smiles),measurement,setting,value
CC(C)c1nc2c([nH]1)C(=O)C(=O)c1ccccc1-2 [compound 1],"cell killing effect (cell viability), HL60 cells",HL60 cells,concentration-dependent cell killing effects
same,"cell killing effect (cell viability), U937 cells",U937 cells,concentration-dependent cell killing effects
same,IC50,K562 cells; 4 hours,1600 nM
same,IC50,"K562 cells; Homo sapiens, K562, 4 h",1000 to 2000 nM
same,IC50,MCF7 (breast carcinoma),14400 nM
same,"mortality, acute toxicity",C57BL/6 mice,survived
same,killing effect compared with β-lapachone,[1],killing effect similar to β-lapachone

# Reference: patent US11684610B2, “Pharmaceutical composition including 1,2-naphthoquinone derivative compound for prevention or treatment of solid cancers or blood cancers” (YUNGJIN PHARM. CO., LTD., priority 2018, dated 2023)
